The subject of data set [1] is pancreatic cancer PDX tumors. In words: Static PET imaging in pancreatic cancer PDX-bearing mice. The note with it: for peak tumor SUVmean / time of peak tumor SUVmean after injection: ^86Y PET; for tumor area under the curve relative to FAPI-04: ^86Y PET tumor SUVmean curve. It is filed as in vivo. The procedure:
(§1) All animal care and experimental procedures were performed by following the animal protocols (CCME-LiuZB-2) approved by the ethics committee of Peking University. The mice were from the Beijing Vital River Laboratory Animal Technology Co., Ltd. For cell-line–derived xenograft models, 5 × 10^6 HT-1080-FAP or HT-1080 cells were subcutaneously inoculated into the right shoulder of 6-wk-old female nu/nu-mice. To establish the patient-derived xenograft (PDX) model, tumor specimens were obtained from patients who underwent presurgical ^68Ga-FAPI-04 PET/CT imaging to confirm that the tumor was FAP-positive. After surgical resection, the tumor specimens were immediately placed in ready-to-use fresh tissue preservation solution (TM2701-100) and transported under refrigerated conditions within 2 h. The research protocol was approved by the Institutional Ethics Committee of Peking Union Medical College Hospital (JS-2628). Six-week-old female nonobese diabetic/severe combined immunodeficiency (NOD/SCID) mice were used to establish the PDX models. After being removed from the preservation solution, the tumor specimens were immediately immersed in sterile PBS solution and minced with scissors, and the fragments were then implanted subcutaneously into the left and right shoulders of the mice, which were anesthetized with isoflurane in advance. Engraftment efficiency was determined by ^68Ga-FAPI-04 PET/CT imaging (Supplemental Fig. 21A).
All PET scans were performed on a Mediso nanoScan PET 122S small-animal PET/CT imaging system. For the 60-min dynamic PET scan, 29.6–37.0 MBq of ^68Ga-TEFAPI-06 or ^68Ga-TEFAPI-07 were given to healthy NOD/SCID mice through tail-vein injection. The static PET imaging was performed on mice bearing pancreatic PDX tumors, HT-1080-FAP tumors, and HT-1080 tumors at the indicated time points after intravenous injection of 7.4–11.1 MBq of ^86Y-FAPI-04,^86Y-TEFAPI-06, or ^86Y-TEFAPI-07.

Data set [2] concerns HT-1080-FAP and HT-1080 tumors. The data set can be described thus: PET imaging of HT-1080-FAP and HT-1080 tumor-bearing mice. Format: in vivo. The note with it: ^86Y PET, tumor-bearing nu/nu mice. The procedure:
as §1, with “After being removed from the preservation solution, the tumor specimens were immediately immersed in sterile PBS solution and minced with scissors, and the fragments were then implanted subcutaneously into the left and right shoulders of the mice, which were anesthetized with isoflurane in advance.” left out, “21A). […]” for “21A).”

Data set [3] deals with T1, FAP (Homo sapiens, UniProt Q12884).
T1 sequence (Q12884 1-760): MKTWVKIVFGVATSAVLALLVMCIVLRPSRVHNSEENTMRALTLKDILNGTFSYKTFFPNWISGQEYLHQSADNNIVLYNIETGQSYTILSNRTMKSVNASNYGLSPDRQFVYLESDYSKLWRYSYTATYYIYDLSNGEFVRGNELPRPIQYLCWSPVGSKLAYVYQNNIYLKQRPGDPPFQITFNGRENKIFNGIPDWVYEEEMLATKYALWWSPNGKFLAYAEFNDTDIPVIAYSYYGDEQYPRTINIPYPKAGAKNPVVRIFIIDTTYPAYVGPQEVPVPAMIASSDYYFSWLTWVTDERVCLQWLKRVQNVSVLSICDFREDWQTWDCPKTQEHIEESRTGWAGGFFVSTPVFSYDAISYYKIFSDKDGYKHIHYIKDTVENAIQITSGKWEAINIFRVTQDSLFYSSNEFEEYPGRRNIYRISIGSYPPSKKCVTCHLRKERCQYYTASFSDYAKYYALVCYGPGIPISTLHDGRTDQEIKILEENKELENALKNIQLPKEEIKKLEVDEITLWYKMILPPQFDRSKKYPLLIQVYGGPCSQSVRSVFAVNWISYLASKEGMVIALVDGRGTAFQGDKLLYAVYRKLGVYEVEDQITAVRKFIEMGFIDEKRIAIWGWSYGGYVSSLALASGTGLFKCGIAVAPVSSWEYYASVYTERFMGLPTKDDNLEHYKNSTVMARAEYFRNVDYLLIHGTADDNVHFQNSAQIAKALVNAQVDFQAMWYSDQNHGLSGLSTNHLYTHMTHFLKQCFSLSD
The data set can be described thus: Competition assay against ^68Ga-FAPI-04 in HT-1080-FAP cells. It is filed as binding. More on the design: host or cells: HT-1080 human fibrosarcoma cells (HT-1080-FAP). The procedure:
(§2) The human fibrosarcoma cell line (HT-1080), and the HT-1080 cell line transfected with human FAP gene (HT-1080-FAP, from WuXi AppTec), were cultivated in Eagle minimum essential medium containing 10% fetal bovine serum, 1% antibiotic–antimycotic, and a 4 μg/mL concentration of blasticidin S at 37°C under conditions of 5% carbon dioxide. For competition assays, HT-1080-FAP cells were seeded in 6-well plates and cultivated until they reached about 1.2 × 10^6 cells per well. The cells were incubated simultaneously with unlabeled FAPI-04, TEFAPI-06, or TEFAPI-07 (10^−5–10^−9 M) with ^68Ga-FAPI-04 in 1 mL of fresh medium without fetal bovine serum for 1 h. The medium was removed, and the cells were washed twice with phosphate-buffered saline (PBS). Subsequently, the cells were lysed with 0.5 mL of 1 M NaOH and washed with 0.5 mL of PBS twice, and the NaOH (0.5 mL) and PBS (0.5 mL × 2) were collected to determine the uptake counts. For saturation binding assays, HT-1080-FAP and HT-1080 cells were seeded in 24-well plates and cultivated until they reached about 2 × 10^5 cells per well. ^68Ga-FAPI-04, ^68Ga-TEFAPI-06, or ^68Ga-TEFAPI-07 was diluted to a concentration 0.01–200 nM in fresh medium without fetal bovine serum. The cells were incubated in the above solution for 1 h and then washed twice with PBS. The lysed cells and the PBS for washing were collected to determine the counts.

In data set [4] the target is T1, FAP. In words: Saturation binding assay of ^68Ga-labeled tracers in HT-1080-FAP and HT-1080 cells. More on the design: host or cells: HT-1080 human fibrosarcoma cells (HT-1080-FAP). The procedure: as §2
Data set [5] addresses T1, FAP. In words: Blocking study in vivo with cold ligand. The note with it: 12 h and 24 h after treatment with cold ligand. Also noted: from tissue; host or cells: tumour in tumour-bearing mice; species or system mice.
Data set [6] in a line: Dynamic PET imaging in healthy NOD/SCID mice (heart/blood signal). Format: in vivo. To be noted: for time of peak signal in heart after injection: dynamic PET.
Another data set concerns HT-1080 cells. In words: Cellular uptake assay in HT-1080 cells. It is filed as cell-based, human. To be noted: HT-1080 cells (FAP-negative). The procedure:
as §2

A further data set has as its system HT-1080-FAP cells. In words: Cellular uptake assay in HT-1080-FAP cells. Format: cell-based, human.
Setting [7] is: 0.05% human serum albumin, read-out: half-maximal inhibitory concentration in the presence of albumin.
Setting [8] is: HT-1080-FAP cells, unlabeled ligand vs ^68Ga-FAPI-04, 1 h, medium without FBS, read-out: half-maximal inhibitory concentration (IC50).
The mark [9] stands for this setting: ^68Ga-labeled tracer, 0.01-200 nM, 1 h, medium without FBS, read-out: dissociation constant (Kd).
Where [10] appears, read: binding assays in 0.05% human serum albumin, sentence prints 'in the absence of albumin', read-out: dissociation constant, binding assays in 0.05% human serum albumin.

Like-named read-outs stand apart in the source and are kept apart here.

Take `N#C[C@@H]1CC(F)(F)CN1C(=O)CNC(=O)c1ccnc2ccc(OCCCN3CCN(C(=O)[C@H](CCCCNC(=O)CN4CCN(CC(=O)[O-])CCN(CC(=O)[O-])CCN(CC(=O)[O-])CC4)NC(=O)CCCC(=O)NC(CCCCNC(=O)CCCc4ccc(I)cc4)C(=O)O)CC3)cc12.[86Y+3]` (stereo partly shown) [^86Y-TEFAPI-06]: in data set [1], the “tumor SUVmean at 36 h after injection” value was determined as 0.602, the “peak tumor SUVmean” value worked out at 0.73 and the “time of peak tumor SUVmean after injection” value is recorded as 18 h. Also, in data set [2], the “uptake in HT-1080-FAP tumors relative to HT-1080 tumors” value is listed as 2- to 6 fold.
As for `N#C[C@@H]1CC(F)(F)CN1C(=O)CNC(=O)c1ccnc2ccc(OCCCN3CCN(C(=O)[C@H](CCCCNC(=O)CN4CCN(CC(=O)O)CCN(CC(=O)O)CCN(CC(=O)O)CC4)NC(=O)CCCC(=O)NC(CCCCNC(=O)CCCc4ccc(I)cc4)C(=O)O)CC3)cc12` (stereo partly shown) [TEFAPI-06], the “tumor area under the curve relative to FAPI-04” value in data set [1] is reported as 37.9 fold. For the same molecule, the IC50 on FAP [3] (setting [7]) stood at 11.4 ± 1.15 nM; at FAP [3] (setting [8]), 12.2 ± 0.65 nM. For the same molecule, the Kd on FAP [4] (setting [9]) came to 10.2 ± 2.56 nM; on FAP [4] (setting [10]), 4.37 ± 0.81 nM. Further, the “tumor uptake after treatment with cold ligand (blocking)” value at FAP [5] is “tumor uptake decreased”.
Consider `Cc1cc(-c2ccc(NC(=O)CCCC(=O)N[C@@H](CCCCNC(=O)CN3CCN(CC(=O)[O-])CCN(CC(=O)[O-])CCN(CC(=O)[O-])CC3)C(=O)N3CCN(CCCOc4ccc5nccc(C(=O)NCC(=O)N6CC(F)(F)C[C@H]6C#N)c5c4)CC3)c(C)c2)ccc1N=Nc1ccc2c(S(=O)(=O)O)cc(S(=O)(=O)O)c(N)c2c1O.[86Y+3]` [^86Y-TEFAPI-07], for which, in data set [1], the “tumor SUVmean at 36 h after injection” value is reported as 0.606, the “peak tumor SUVmean” value is on record as 0.81 and the “time of peak tumor SUVmean after injection” value was 8 h. In addition, the “uptake in HT-1080-FAP tumors relative to HT-1080 tumors” value in data set [2] is on record as 2- to 6 fold.
`Cc1cc(-c2ccc(NC(=O)CCCC(=O)N[C@@H](CCCCNC(=O)CN3CCN(CC(=O)[O-])CCN(CC(=O)[O-])CCN(CC(=O)[O-])CC3)C(=O)N3CCN(CCCOc4ccc5nccc(C(=O)NCC(=O)N6CC(F)(F)C[C@H]6C#N)c5c4)CC3)c(C)c2)ccc1N=Nc1ccc2c(S(=O)(=O)O)cc(S(=O)(=O)O)c(N)c2c1O.[68Ga+3]` [^68Ga-TEFAPI-07]: in data set [6], the “decrease of heart signal from 10 to 60 min after injection” value was 23.15% ± 2.16%, the “decrease of heart signal from 10 to 240 min after injection” value is given as 54.28% ± 4.98%, the “decrease of heart signal from 60 to 240 min after injection” value is listed as 40.56% ± 5.25% and the “time of peak signal in heart after injection” value is recorded as “about 2 min”. Further, in the data set on HT-1080 cells, the “cellular uptake in HT-1080 cells” value is on record as “almost negligible uptake”. The “cellular uptake in HT-1080-FAP cells” value in the data set on HT-1080-FAP cells is reported as “significant uptake”. The Kd on FAP [4] (setting [9]) was 7.81 ± 2.28 nM.
For `Cc1cc(-c2ccc(NC(=O)CCCC(=O)N[C@@H](CCCCNC(=O)CN3CCN(CC(=O)O)CCN(CC(=O)O)CCN(CC(=O)O)CC3)C(=O)N3CCN(CCCOc4ccc5nccc(C(=O)NCC(=O)N6CC(F)(F)C[C@H]6C#N)c5c4)CC3)c(C)c2)ccc1N=Nc1ccc2c(S(=O)(=O)O)cc(S(=O)(=O)O)c(N)c2c1O` [TEFAPI-07], the “tumor area under the curve relative to FAPI-04” value in data set [1] was determined as 35.5 fold. For the same molecule, the IC50 came out at 27.7 ± 5 nM on FAP [3] (setting [7]) and 17 ± 1.43 nM on FAP [3] (setting [8]). Moreover, the values for the Kd at FAP [4] (setting [9]) and at FAP [4] (setting [10]) were 7.81 ± 2.28 nM and 19.1 ± 5.54 nM, respectively. At FAP [5], the “tumor uptake after treatment with cold ligand (blocking)” value is “tumor uptake decreased”.
For `N#C[C@@H]1CC(F)(F)CN1C(=O)CNC(=O)c1ccnc2ccc(OCCCN3CCN(C(=O)[C@H](CCCCNC(=O)CN4CCN(CC(=O)[O-])CCN(CC(=O)[O-])CCN(CC(=O)[O-])CC4)NC(=O)CCCC(=O)NC(CCCCNC(=O)CCCc4ccc(I)cc4)C(=O)O)CC3)cc12.[68Ga+3]` (stereo partly shown) [^68Ga-TEFAPI-06], in data set [6], the “decrease of heart signal from 10 to 60 min after injection” value is given as 35.70% ± 4.74%, the “decrease of heart signal from 10 to 240 min after injection” value is given as 56.18% ± 2.50%, the “decrease of heart signal from 60 to 240 min after injection” value was 31.80% ± 1.15% and the “time of peak signal in heart after injection” value was “about 2 min”. Besides, in the data set on HT-1080 cells, the “cellular uptake in HT-1080 cells” value is given as “almost negligible uptake”. The “cellular uptake in HT-1080-FAP cells” value in the data set with HT-1080-FAP cells was “significant uptake”. On FAP [4] (setting [9]), the Kd was found to be 10.2 ± 2.56 nM.

The record behind these values is PMC9157728, “Albumin Binder–Conjugated Fibroblast Activation Protein Inhibitor Radiopharmaceuticals for Cancer Therapy” (Journal of Nuclear Medicine, 2022).
